Measured values published in article PMC9505425, “Targeting of the Mitochondrial TET1 Protein by Pyrrolo[3,2-b]pyrrole Chelators” (International Journal of Molecular Sciences, 2022).
Several values for one entry are separate records, joined by “and”; a condition that tells them apart may be missing. Equal entries are not always repeated.

Key:
U-118 MG cells = assay: MTT cytotoxicity assay, U-118 MG; type: cell-based, human; conditions: 48 h
Experimental: (§1) The effects of the tested compounds 1–6 on HF-P4, U-118 MG, H1299, BT-20, and Caov-3 cell lines were evaluated by the MTT assay during 48 h treatment (Table 2 and Tables S2–S31). In all tested compounds, we recognized a difference in cytotoxicity between healthy cells (HF-P4) and cancer cell lines (BT-20, Caov-3, and H-1299). […] In the case of ovarian cancer, the authors discovered oncogenic and poor prognosis roles of TET1 in epithelial ovarian carcinoma (EOC). TET1 is believed to demethylate the epigenome and activate numerous oncogenic pathways in EOC. The aforementioned study presents a new mechanism where TET1 contributes to tumor development through collaboration with CK2α [21]. The overexpression of the TET1 protein was also found in triple negative breast cancer and was associated with an activation of PI3K/mTOR pathway and decreased overall survival.
A human glioblastoma cell line (U118-MG) and a human non-small-cell lung carcinoma cell line (H1299) were used for the cytotoxicity assay (MTT). Both cell lines were generously supplied by Dr. M. Masařik, PhD, Department of Pathological physiology, Masaryk University, Czech Republic. U118-MG cells were cultivated under standard conditions in Dulbecco’s modified Eagle’s medium (ATCC, Manassas, VA, USA) supplemented with 10% FBS and streptomycin (100 μg/mL) at 37 °C at a 5% CO2 atmosphere. H1299 cells were cultivated under standard conditions in RPMI 1640 (BioTech, Prague, Czech Republic) medium supplemented with 10% FBS and streptomycin (100 μg/mL) at 37 °C at a 5% CO2 atmosphere.
(§2) For the cytotoxicity assay, we used the following cell lines: human glioblastoma cell line U118-MG, human mammary gland/breast cell line BT-20, human ovary adenocarcinoma cell line Caov-3, and non-small-cell lung carcinoma H-1299. As previously mentioned, these cell lines contain a high level of the TET1 protein, which corresponds to a lower overall survival. In addition to these cell cultures, we used the human dermal fibroblast cell line HF-P4 as a healthy control. Determination of cytotoxicity was performed using the MTT [3-(4,5-dimethylthiazol-2-yl)-2,5-diphenyltetrazolium bromide] colorimetric assay. Viable cells from each cell line were cultured in 96-well plates (VWR, Stříbrná Skalice, Czech Republic) at a density of 1.0 × 10^5 cells per well and allowed to grow for 24 h in 200 μL of recommended medium. After a 1-day incubation, the medium was replaced with solutions of compounds 1–6 at concentration ranges of 0.1–20 μM. Each concentration was measured four times within one test, and the entire test was repeated three times. Tested compounds 1–6 were dissolved in DMSO and then diluted with corresponding medium to a final volume of 200 μL (maximum 1% DMSO). After 48 h exposure, cells were treated with 175 μL of MTT solution (P-LAB, Prague, Czech Republic) for 2 h. In the next step, MTT solution was removed, and 125 μL of DMSO (Penta, Prague, Czech Republic) was added to solubilize dark crystals of formazan formed in intact cells, and absorbance was measured at 570 nm by the enzyme-linked immunoabsorbent assay reader Infinite® 200 PRO (Tecan, Männedorf, Switzerland). The final DMSO concentration was smaller than 1% (v/v). The absorbance of untreated cells was considered 100%, and IC50 values were calculated by the GraphPad Prism 8 software. As a parameter for cytotoxicity, we used a concentration that inhibits 50% of cell growth (IC50).

BT-20 cells = assay: MTT cytotoxicity assay, BT-20; type: cell-based, human
Experimental: as §1
The human mammary gland/breast cell line (BT-20), purchased from ATCC (BT-20 (ATCC® HTB-19™), Manassas, VA, USA), was used for the cytotoxicity assay (MTT), and BT-20 cells were cultivated under standard conditions in Eagle’s minimum essential medium (ATCC, Manassas, VA, USA) supplemented with 10% FBS and streptomycin (100 μg/mL) at 37 °C at a 5% CO2 atmosphere.
as §2

Which viability at 0.1 µM (U-118 MG cells; Homo sapiens, U-118-MG, U-118 MG, 100 nM, repeats, read-out: Cell viability %) does the source give for `COc1cccc(/C=N/NC(=O)c2ccc(-c3cc4c(cc(-c5ccc(C(=O)N/N=C/c6cccc(OC)c6O)cc5)n4-c4ccc(C)cc4)n3-c3ccc(C)cc3)cc2)c1O` [Compound 5] here?
Its viability at 0.1 µM is 97.8%.

What about the viability at 0.5 µM (U-118 MG cells; Homo sapiens, U-118-MG, U-118 MG, 500 nM, repeats, read-out: Cell viability %) of the same compound?
The viability at 0.5 µM was 91.7%.

And the viability at 1 µM (U-118 MG cells; Homo sapiens, U-118-MG, U-118 MG, 1 uM, repeats, read-out: Cell viability %)?
Its viability at 1 µM is 87.4%.

And the viability at 2.5 µM (U-118 MG cells; Homo sapiens, U-118-MG, U-118 MG, 2.5 uM, repeats, read-out: Cell viability %)?
Its viability at 2.5 µM is 58.2%.

What about the viability at 5 µM (U-118 MG cells; Homo sapiens, U-118-MG, U-118 MG, 5 uM, repeats, read-out: Cell viability %) of the same compound?
Its viability at 5 µM is 65.3%.

And the viability at 7.5 µM (U-118 MG cells; Homo sapiens, U-118-MG, U-118 MG, 7.5 uM, repeats, read-out: Cell viability %)?
Its viability at 7.5 µM is 47.2%.

And the viability at 10 µM (U-118 MG cells; Homo sapiens, U-118-MG, U-118 MG, 10 uM, repeats, read-out: Cell viability %)?
The viability at 10 µM was 45.5%.

What about the viability at 15 µM (U-118 MG cells; Homo sapiens, U-118-MG, U-118 MG, 15 uM, repeats, read-out: Cell viability %) of the same compound?
Its viability at 15 µM is 28.9%.

What about the viability at 20 µM (U-118 MG cells; Homo sapiens, U-118-MG, U-118 MG, 20 uM, repeats, read-out: Cell viability %) of the same compound?
The viability at 20 µM was 21%.

And the IC50 (U-118 MG cells; Homo sapiens, U-118-MG, MTT)?
The IC50 was 6.85 µM.

And the Cell viability % (U-118 MG cells; U-118 MG, 100 nM, repeats, 0.1 µM)?
The Cell viability % was 97.5% and 97.94%.

And the Cell viability % (U-118 MG cells; U-118 MG, 500 nM, repeats, 0.5 µM)?
The Cell viability % was 83.56% and 99.84%.

And the Cell viability % (U-118 MG cells; U-118 MG, 750 nM, repeats, 0.75 µM)?
The Cell viability % was 101.0241% and 97.49% and 72.15%.

What about the Cell viability % (U-118 MG cells; U-118 MG, 1 uM, repeats) of the same compound?
Its Cell viability % is 91.36% and 94.35%.

What about the Cell viability % (U-118 MG cells; U-118 MG, 2.5 uM, repeats) of the same compound?
Its Cell viability % is 62.67% and 72.48%.

And the Cell viability % (U-118 MG cells; U-118 MG, 5 uM, repeats)?
Its Cell viability % is 61.9341% and 54.55%.

And the Cell viability % (U-118 MG cells; U-118 MG, 7.5 uM, repeats)?
The Cell viability % was 44.6% and 36.58%.

What about the Cell viability % (U-118 MG cells; U-118 MG, 10 uM, repeats) of the same compound?
The Cell viability % was 44.7379% and 34.31%.

And the Cell viability % (U-118 MG cells; U-118 MG, 15 uM, repeats)?
Its Cell viability % is 30.3% and 23.7185%.

What about the Cell viability % (U-118 MG cells; U-118 MG, 20 uM, repeats) of the same compound?
Its Cell viability % is 24.2419% and 18.84%.

What about the Cell viability % (BT-20 cells; BT-20, 100 nM, 48 h, repeats, 0.1 µM) of the same compound?
The Cell viability % was 94.73% and 89.5899%.

What about the Cell viability % (BT-20 cells; BT-20, 500 nM, 48 h, repeats, 0.5 µM) of the same compound?
Its Cell viability % is 90.47% and 107.0261%.

What about the Cell viability % (BT-20 cells; BT-20, 750 nM, 48 h, repeats, 0.75 µM) of the same compound?
Its Cell viability % is 86.64% and 81% and 102.8391%.

And the Cell viability % (BT-20 cells; BT-20, 1 uM, 48 h, repeats, 1 µM)?
Its Cell viability % is 92.1% and 100.302%.

And the Cell viability % (BT-20 cells; BT-20, 2.5 uM, 48 h, repeats, 2.5 µM)?
The Cell viability % was 80.3% and 100.57% and 104.0262%.

What about the Cell viability % (BT-20 cells; BT-20, 5 uM, 48 h, repeats, 5 µM) of the same compound?
Its Cell viability % is 60.99% and 87.49% and 89.1%.

And the Cell viability % (BT-20 cells; BT-20, 7.5 uM, 48 h, repeats, 7.5 µM)?
Its Cell viability % is 52.633% and 55.7373%.

And the Cell viability % (BT-20 cells; BT-20, 10 uM, 48 h, repeats, 10 µM)?
The Cell viability % was 52.47% and 37.54%.

And the Cell viability % (BT-20 cells; BT-20, 15 uM, 48 h, repeats, 15 µM)?
Its Cell viability % is 28.45% and 34.27%.

What about the Cell viability % (BT-20 cells; BT-20, 20 uM, 48 h, repeats, 20 µM) of the same compound?
Its Cell viability % is 18.3694% and 26.24%.

And the viability at 0.1 µM (BT-20 cells; Homo sapiens, BT-20, 48 h, BT-20, 100 nM, repeats, read-out: Cell viability %)?
Its viability at 0.1 µM is 86%.

And the viability at 0.5 µM (BT-20 cells; Homo sapiens, BT-20, 48 h, BT-20, 500 nM, repeats, read-out: Cell viability %)?
The viability at 0.5 µM was 97.4%.

What about the viability at 1 µM (BT-20 cells; Homo sapiens, BT-20, 48 h, BT-20, 1 uM, repeats, read-out: Cell viability %) of the same compound?
The viability at 1 µM was 99%.

And the viability at 7.5 µM (BT-20 cells; Homo sapiens, BT-20, 48 h, BT-20, 7.5 uM, repeats, read-out: Cell viability %)?
Its viability at 7.5 µM is 45.7%.

And the viability at 10 µM (BT-20 cells; Homo sapiens, BT-20, 48 h, BT-20, 10 uM, repeats, read-out: Cell viability %)?
The viability at 10 µM was 41.3%.

And the viability at 15 µM (BT-20 cells; Homo sapiens, BT-20, 48 h, BT-20, 15 uM, repeats, read-out: Cell viability %)?
Its viability at 15 µM is 28.5%.

And the viability at 20 µM (BT-20 cells; Homo sapiens, BT-20, 48 h, BT-20, 20 uM, repeats, read-out: Cell viability %)?
The viability at 20 µM was 20.9%.

What about the IC50 (BT-20 cells; Homo sapiens, BT-20, MTT, 48 h) of the same compound?
The IC50 was 11.2 µM.

What about the melting point of the same compound?
The melting point was 321 to 322 °C.
